{
  "source": "patent US5639887A",
  "about": "“MDR reversal agents” (priority 1995, dated 1997)",
  "key": {"[1]": {"system": "human epidermoid carcinoma KB/8.5", "assay": "In vivo evaluation of MDR-1 reversal agents against human epidermoid carcinoma KB/8.5 implanted SC in athymic nude mice", "design": "species or system human (tumor in athymic nude mice)", "description": "The multiple drug resistant human epidermoid carcinoma KB/8.5 is propagated in medium containing colchicine (10 nanograms/ml) to maintain drug resistance. Colchicine is removed from the medium, for two cell passages, prior to subcutaneous (SC) implant of 8×10^6 KB/8.5 tumor cells into athymic \"nude\" mice (Harlan Sprague Dawley). […] Individual mouse tumor mass and mean tumor mass for each treatment group is determined on Day +14 and Day +21 of the test period. For each treatment group, the Relative Tumor Growth, RTG, is calculated as follows: [formula]\nStatistical analysis of Log Relative Tumor Growth is carried out using the Student t-test. Transformation of the data from absolute mean tumor mass (mgs tumor mass) to Log Relative Tumor Growth prior to statistical analysis has two beneficial effects:\n1) it corrects the data for differences in mean tumor mass of the different treatment groups at the start of the test period (Day 0); and\n2) the Log transformation of the data more adequately reflects the exponential growth pattern of the SC tumors and makes the use of the Student t-test more appropriate."}, "[2]": {"system": "vincristine resistant murine leukemia P388/VCR", "assay": "In vivo evaluation of MDR-1 reversal agents against vincristine resistant murine leukemia P388/VCR implanted IP in CDF1 mice", "settings": "for % ILS: vs vincristine alone", "description": "Tumor cell ascites are harvested 5-7 days later. For drug testing, groups of 10-15 CDF1 mice (DBA/2×Balb/cF1 hybrids; Charles River Laboratories, Inc) are injected IP with 0.5 ml of diluted ascitic fluid containing 1×10^6 viable P388/VCR tumor cells. […] Drugs are administered once daily, by the IP, intravenous (IV) or oral route, starting one day after tumor implantation and using a variety of treatment schedules. Mice are weighed periodically, survival is recorded for 30 days post tumor implantation, and Mean survival times are calculated for all groups of mice. Statistical analysis of Mean survival times is carried out using the Student t-test."}, "[3]": {"settings": "vincristine 0.2 + compound 75 mg/kg, days 1-7, IP"}, "[4]": {"settings": "vincristine 0.2 + compound 100 mg/kg, days 1-7, ORAL"}, "[5]": {"settings": "vincristine 0.2 + compound 200 mg/kg, days 1-7, ORAL"}, "[6]": {"settings": "vincristine 0.4 + compound 25.0 mg/kg, days 1-3, IP"}, "[7]": {"settings": "vincristine 0.4 + compound 50.0 mg/kg, days 1-3, IP"}, "[8]": {"settings": "vincristine 0.2 + compound 6.3 mg/kg, days 1-7, IP"}, "[9]": {"settings": "vincristine 0.2 + compound 25 mg/kg, days 1-7, IP"}, "[10]": {"settings": "vincristine 0.2 + compound 50 mg/kg, days 1-7, IP"}},
  "data": [
    {"smiles": "COc1ccc(C(C#N)(CCCN2CCc3cc(OC)c(OC)cc3C2)Sc2ccc(C)cc2)cc1OC", "note": "(stereo not drawn) [Example 3, α-(3,4-Dimethoxyphenyl)-3,4-dihydro-6,7-dimethoxy-α-[(4-methylphenyl)thio]-2(1H)-isoquinolinepentanenitrile]", "values": [
      {"measurement": "Relative Tumor Growth Day 21", "setting": "[1]; doxorubicin 8 mg/kg IV + compound 50 mg/kg/dose SC at -2 h and +2 h", "value": 8.38},
      {"measurement": "Relative Tumor Growth Day 21", "setting": "[1]; doxorubicin 8 mg/kg IV + compound 100 mg/kg/dose SC at -2 h and +2 h", "value": 8.87},
      {"measurement": "MST", "setting": "[2]; [3]", "value": 16.7, "unit": "days"},
      {"measurement": "MST", "setting": "[2]; [4]", "value": 15.8, "unit": "days"},
      {"measurement": "MST", "setting": "[2]; [5]", "value": 16.4, "unit": "days"},
      {"measurement": "MST", "setting": "[2]; [6]", "value": 15.6, "unit": "days"},
      {"measurement": "MST", "setting": "[2]; [7]", "value": 16.3, "unit": "days"},
      {"measurement": "% ILS", "setting": "[2]; [3]", "value": "+21%"},
      {"measurement": "% ILS", "setting": "[2]; [4]", "value": "+15%"},
      {"measurement": "% ILS", "setting": "[2]; [5]", "value": "+20%"},
      {"measurement": "% ILS", "setting": "[2]; [6]", "value": "+10%"},
      {"measurement": "% ILS", "setting": "[2]; [7]", "value": "+15%"}
    ]},
    {"smiles": "COc1ccc(C(C#N)(CCCCCCCCCCCN2CCc3cc(OC)c(OC)cc3C2)Sc2ccc(C)cc2)cc1OC", "note": "(stereo not drawn) [Example 14, α-(3,4-Dimethoxyphenyl)-3,4-dihydro-6,7-dimethoxy α-[(4-methylphenyl)thio]-2(1H)-isoquinoline tridecanenitrile]", "values": [
      {"measurement": "Relative Tumor Growth Day 21", "setting": "[1]; doxorubicin 8 mg/kg IV + compound 75 mg/kg/dose SC at -2 h and +2 h", "value": 5.86},
      {"measurement": "Relative Tumor Growth Day 21", "setting": "[1]; doxorubicin 8 mg/kg IV + compound 200 mg/kg/dose SC at -2 h and +2 h", "value": 7.84},
      {"measurement": "MST", "setting": "[2]; [8]", "value": 14.3, "unit": "days"},
      {"measurement": "% ILS", "setting": "[2]; [8]", "value": "+14%"}
    ]},
    {"smiles": "COc1ccc(C(C#N)(CCCCCN2CCc3cc4c(cc3C2)OCO4)Sc2ccc(C)cc2)cc1OC", "note": "(centres unmarked) [Example 21]", "values": [
      {"measurement": "MST", "setting": "[2]; [9]", "value": 14.5, "unit": "days"},
      {"measurement": "% ILS", "setting": "[2]; [9]", "value": "+16%"}
    ]},
    {"smiles": "COc1ccc2c(c1)CCN(CCCCCC(C#N)(Sc1ccc(C)cc1)c1ccc(OC)c(OC)c1)C2", "note": "(centres unmarked) [Example 22]", "values": [
      {"measurement": "MST", "setting": "[2]; [8]", "value": 15.2, "unit": "days"},
      {"measurement": "% ILS", "setting": "[2]; [8]", "value": "+20%"}
    ]},
    {"smiles": "COc1ccc(C(C#N)(CCCCCN2CCc3cc(OC)c(OCCn4ccnc4)cc3C2)Sc2ccc(C)cc2)cc1OC", "note": "(stereo not drawn) [Example 33, α-(3,4-Dimethoxyphenyl)-3,4-dihydro-7-[2-(1H-imidazol-1-yl)ethoxy]-6-methoxy-α-[(4-methylphenyl)thio]-2(1H)-isoquinolineheptanenitrile]", "values": [
      {"measurement": "MST", "setting": "[2]; [9]", "value": 15.6, "unit": "days"},
      {"measurement": "MST", "setting": "[2]; [10]", "value": 16.6, "unit": "days"},
      {"measurement": "% ILS", "setting": "[2]; [9]", "value": "+39%"},
      {"measurement": "% ILS", "setting": "[2]; [10]", "value": "+48%"}
    ]},
    {"smiles": "COc1ccc(C(C#N)(CCCCCCN2CCc3cc(OC)c(OC)cc3C2)Sc2ccc(C)cc2)cc1OC", "note": "(stereo not drawn) [Example 37, α-(3.4-Dimethoxyphenyl)-3,4-dihydro-6,7-dimethoxy-α-[(4-methylphenyl)thio]-2(1H)-isoqutnolineoctanenitrile]", "values": [
      {"measurement": "MST", "setting": "[2]; [9]", "value": 14.7, "unit": "days"},
      {"measurement": "% ILS", "setting": "[2]; [9]", "value": "+17%"}
    ]},
    {"smiles": "COc1cc2c(cc1OC)CN(CCCCCCC(Sc1ccccc1)c1ccccc1)CC2", "note": "(centres unmarked) [Example 112, 1,2,3,4-Tetrahydro-6,7-dimethoxy-2-[7-phenyl-7-(phenylthio]heptyl]isoquinoline]", "values": [
      {"measurement": "MST", "setting": "[2]; [9]", "value": 16.3, "unit": "days"},
      {"measurement": "MST", "setting": "[2]; [10]", "value": 14.2, "unit": "days"},
      {"measurement": "% ILS", "setting": "[2]; [9]", "value": "+45%"},
      {"measurement": "% ILS", "setting": "[2]; [10]", "value": "+26%"}
    ]},
    {"smiles": "CC[C@]1(O)C[C@H]2CN(CCc3c([nH]c4ccccc34)[C@@](C(=O)OC)(c3cc4c(cc3OC)N(C=O)[C@H]3[C@@](O)(C(=O)OC)[C@H](OC(C)=O)[C@]5(CC)C=CCN6CC[C@]43[C@@H]65)C2)C1", "note": "[Vincristine, reference compound]", "values": [
      {"measurement": "MST", "setting": "[2]; vincristine alone 0.6 mg/kg, days 1,2, IV", "value": 9.6, "unit": "days"},
      {"measurement": "MST", "setting": "[2]; vincristine alone 0.8 mg/kg, days 1,2, IV", "value": 9.8, "unit": "days"}
    ]}
  ]
}
